Assays:
Format in all cases: cell-based
LECT2 = test: RNA-seq of LECT2 expression in compound-treated primary human hepatocytes
Experimental: (§1) Human hepatocytes were obtained from two donors from Massachusetts General Hospital, namely MGH54 and MGH63, and one donor from Lonza, namely HUM4111B. Cryopreserved hepatocytes were cultured in plating media for 16 hours, transferred to maintenance media for 4 hours. Cultured on serum-free media for 2 hours, then a compound was added. The hepatocytes were maintained on the serum-free media for 16 hours prior to gene expression analysis. Primary human hepatocytes were stored in the vapor phase of a liquid nitrogen freezer (about −130° C.).
(§2) Human hepatocytes cultured as described above were plated in 24-well format, adding 375,000 cells per well in a volume of 500 ul plating medium. Four hours before treatment, cells were washed with PBS and the medium was changed to either: fresh maintenance medium (complete) or modified maintenance medium.
(§3) Compound stocks were prepared at 1000× final concentration and added in a 2-step dilution to the medium to reduce risk of a compound precipitating out of solution when added to the cells, and to ensure reasonable pipetting volumes. One at a time, each compound was first diluted 10-fold in warm (about 37° C.) modified maintenance medium (initial dilution=ID), mixed by vortexing, and the ID was diluted 100-fold into the cell culture (e.g. 5.1 ul into 1 well of a 24-well plate containing 0.5 mL medium). The plate was mixed by carefully swirling and after all wells were treated and returned to the incubator overnight. If desired, separate plates/wells were treated with vehicle-only controls and/or positive controls. If using multi-well plates, controls were included on each plate. After about 18 hours, cells were harvested for further analysis, e.g., ChIP-seq, RNA-seq, ATAC-seq, etc.
(§4) This protocol is a modified version of the following protocols: MagMAX mirVana Total RNA Isolation Kit User Guide (Applied Biosystems #MAN0011131 Rev B.0), NEBNext Poly(A) mRNA Magnetic Isolation Module (E7490), and NEBNext Ultra Directional RNA Library Prep Kit for Illumina (E7420) (New England Biosystems #E74901).
(§5) The MagMAX mirVana kit instructions (the section titled “Isolate RNA from cells” on pages 14-17) were used for isolation of total RNA from cells in culture. Two hundred μl of Lysis Binding Mix was used per well of the multiwell plate containing adherent cells (usually a 24-well plate).
(§6) For mRNA isolation and library prep, the NEBNext Poly(A) mRNA Magnetic Isolation Module and Directional Prep kit was used. RNA isolated from cells above was quantified, and prepared in […] of each sample in 50 μl of nuclease-free water. This protocol may be run in microfuge tubes or in a 96-well plate.
Standard QC were applied (read integrity, mapping statistics, library complexity, fragment bias) to remove unsatisfactory samples. […] Log 2 fold change and significance values were computed using PME count data (with replicates explicitly modeled versus pan-experiment controls), median ratio normalized, using maximum likelihood estimation rather than maximum a posteriori, and disabling the use of Cook's distance cutoff when determining acceptable adjusted p-values. […] RNA-seq signals were also normalized by read depth and visualized using the UCSC browser.
To identify small molecules that modulate target gene expression, primary human hepatocytes were prepared as a monoculture, and at least one small molecule compound was applied to the cells.
RNA-seq was performed to determine the effects of the compounds on the expression of the target genes in hepatocytes. Fold change was calculated by dividing the level of expression in the cell system that had been perturbed by the level of expression in an unperturbed system. Changes in expression having a p-value ≤0.05 were considered significant.
Significance was defined as an FPKM ≥1, a log 2(fold change) ≥0.5, and a q-value of ≤0.05 for all targets except for CPOX.

NOTCH2 = test: RNA-seq of NOTCH2 expression in compound-treated primary human hepatocytes
Experimental: (§7) Human hepatocytes were obtained from two donors from Massachusetts General Hospital, namely MGH54 and MGH63, and one donor from Lonza, namely HUM4111B. Cryopreserved hepatocytes were cultured in plating media for 16 hours, transferred to maintenance media for 4 hours. Cultured on serum-free media for 2 hours, then a compound was added. The hepatocytes were maintained on the serum-free media for 16 hours prior to gene expression analysis. Primary human hepatocytes were stored in the vapor phase of a liquid nitrogen freezer (about -130° C.). Human hepatocytes cultured as described above were plated in 24-well format, adding 375,000 cells per well in a volume of 500 ul plating medium. Four hours before treatment, cells were washed with PBS and the medium was changed to either: fresh maintenance medium (complete) or modified maintenance medium. Compound stocks were prepared at 1000× final concentration and added in a 2-step dilution to the medium to reduce risk of a compound precipitating out of solution when added to the cells, and to ensure reasonable pipetting volumes. […] The plate was mixed by carefully swirling and after all wells were treated and returned to the incubator overnight. If desired, separate plates/wells were treated with vehicle-only controls and/or positive controls. If using multi-well plates, controls were included on each plate. After about 18 hours, cells were harvested for further analysis, e.g., ChIP-seq, RNA-seq, ATAC-seq, etc. This protocol is a modified version of the following protocols: MagMAX mirVana Total RNA Isolation Kit User Guide (Applied Biosystems #MAN0011131 Rev B.0), NEBNext Poly(A) mRNA Magnetic Isolation Module ([…]), and NEBNext Ultra Directional RNA Library Prep Kit for Illumina ([…]) (New England Biosystems #E74901). […] Two hundred μl of Lysis Binding Mix was used per well of the multiwell plate containing adherent cells (usually a 24-well plate). For mRNA isolation and library prep, the NEBNext Poly(A) mRNA Magnetic Isolation Module and Directional Prep kit was used. RNA isolated from cells above was quantified, and prepared in […] of each sample in 50 μl of nuclease-free water. This protocol may be run in microfuge tubes or in a 96-well plate. […] Genomic alignments were converted to transcriptome alignments based on reference transcript annotations from the Human GENCODE Gene Set release 24 (Harrow et al., Genome Res. […] Standard QC were applied (read integrity, mapping statistics, library complexity, fragment bias) to remove unsatisfactory samples. Differential gene expression was computed using the negative binomial model implemented by DESeq2 version 1.16.1 (Love et al., Genome Biol. (2014) 15(12):550). […] RNA-seq signals were also normalized by read depth and visualized using the UCSC browser. To identify small molecules that modulate target gene expression, primary human hepatocytes were prepared as a monoculture, and at least one small molecule compound was applied to the cells. RNA-seq was performed to determine the effects of the compounds on the expression of the target genes in hepatocytes. Fold change was calculated by dividing the level of expression in the cell system that had been perturbed by the level of expression in an unperturbed system.

JAG1 = test: RNA-seq of JAG1 expression in compound-treated primary human hepatocytes; conditions: primary human hepatocytes
Experimental: as §7

SERPINC1 mRNA [1] = test: Quantitative PCR of SERPINC1 mRNA in mouse hepatocytes treated with compounds; conditions: for SERPINC1 mRNA, Mouse Heps, 1 uM: compound 1 uM; for SERPINC1 mRNA, Mouse Heps, 10 uM: compound 10 uM
Experimental: Samples were amplified using Taqman probes from ThermoFisher.
In some examples, RQ Min and RQ Max values are also reported. RQ Min and RQ Max are the minimum and maximum relative levels of gene expression in the test samples, respectively. They were calculated using the confidence level set in the analysis settings and the confidence level was set to one standard deviation (SD). These values were calculated using standard deviation as follows: […].
Compounds were tested in hepatocytes for upregulation of SERPINC1 mRNA for identification of potential treatments of SERPINC1/AT III deficiency.

SERPINC1 mRNA [2] = test: Quantitative PCR of SERPINC1 mRNA in primary human hepatocytes (Lonza Hu4282) treated with compounds; conditions: quantitative PCR; for SERPINC1 mRNA, Lonza Hu4282, 1 uM / SERPINC1 mRNA, Lonza Hu4282, 10 uM: primary human hepatocytes Lonza Hu4282
ANGPTL3 = test: RNA-seq of ANGPTL3 expression in compound-treated primary human hepatocytes; conditions: additional compounds (Table 13), linear fold change
Experimental: as §1, §2, §3, §4, §5, §6
(§8) All pass filter reads from each sample were mapped against the human genome (assembly GRCh38/GCA_000001405.15 “no alt” analysis set merged with hs38d1/GCA_000786075.2) using two pass mapping via STAR version 2.5.3a (alignment parameters alignIntronMin=20; alignIntronMax=1000000; outFilterMismatchNmax=999; outFilterMismatchNoverLmax=0.05; outFilterType=BySJout; outFilterMultimapNmax=20; alignSJoverhangMin=8; alignSJDBoverhangMin=1; alignMatesGapMax=1000000) (Dobin et al., Bioinformatics (2012) 29(1):15-21). Genomic alignments were converted to transcriptome alignments based on reference transcript annotations from the Human GENCODE Gene Set release 24 (Harrow et al., Genome Res. (2012) 22(9): 1760-1774). Using unique and multimapped transcriptomic alignments, gene-level abundance estimates were computed using RSEM version 1.3.0 (Li and Dewey, BMC Bioinformatics (2011) 12:323) in a strand-aware manner, and including confidence interval sampling calculations, to arrive at posterior mean estimates (PME) of abundances (counts and normalized FPKM—fragments per kilobase of exon per million mapped fragments) from the underlying Bayesian model. Standard QC were applied (read integrity, mapping statistics, library complexity, fragment bias) to remove unsatisfactory samples.

FN1 = test: RNA-seq of FN1 expression in compound-treated primary human hepatocytes; conditions: perturbed vs unperturbed, significance FPKM ≥1, log 2(fold change) ≥0.5, q-value ≤0.05
Experimental: as §1, §2, §3, §4, §5, §6, §8

740 Y-P
LECT2 Fold Change (Log2) (LECT2): −0.62 Log2
NOTCH2 Fold Change (Log2) (NOTCH2; primary human hepatocytes): 0.66 Log2
Significant modulation of NOTCH2 (in words) (NOTCH2; summary of Table 6): significantly modulate only NOTCH2
JAG1 Fold Change (Log2) (JAG1): 0 Log2

COc1cc2ncnc(Nc3ccc(Oc4ccccc4)cc3C)c2cc1OC.Cl [APS-2-79]
LECT2 Fold Change (Log2) (LECT2): −0.68 Log2

O=C(Nc1c[nH]nc1-c1nc2ccc(CN3CCOCC3)cc2[nH]1)NC1CC1 [AT9283]
SERPINC1 mRNA, Mouse Heps, 1 uM (SERPINC1 mRNA [1]): 1.11
SERPINC1 mRNA, Mouse Heps, 10 uM (SERPINC1 mRNA [1]): 1.81
SERPINC1 mRNA, Lonza Hu4282, 1 uM (SERPINC1 mRNA [2]; compound 1 uM): 0.91
SERPINC1 mRNA, Lonza Hu4282, 10 uM (SERPINC1 mRNA [2]; compound 10 uM): 2.2

CCNC(=O)Nc1ccc(-c2nc(N3CCOC[C@@H]3C)c3c(n2)C(C)(C)S(=O)(=O)C3)cc1 [CZ415]
SERPINC1 mRNA, Mouse Heps, 1 uM (SERPINC1 mRNA [1]): 2.2
SERPINC1 mRNA, Mouse Heps, 10 uM (SERPINC1 mRNA [1]): 2.5
SERPINC1 mRNA, H8290, 1 uM (SERPINC1 mRNA [2]; hepatocytes H8290, compound 1 uM): 1.4
SERPINC1 mRNA, H8290, 10 uM (SERPINC1 mRNA [2]; hepatocytes H8290, compound 10 uM): 2.3
SERPINC1 mRNA, Lonza Hu4282, 1 uM (SERPINC1 mRNA [2]; compound 1 uM): 1.25
SERPINC1 mRNA, Lonza Hu4282, 10 uM (SERPINC1 mRNA [2]; compound 10 uM): 1.42

CCN(CC)CCN(Cc1ccc(-c2ccc(C(F)(F)F)cc2)cc1)C(=O)Cn1c(SCc2ccc(F)cc2)nc(=O)c2c1CCC2 [Darapladib]
LECT2 Fold Change (Log2) (LECT2): −0.55 Log2
ANGPTL3-LINEAR FOLD CHANGE (ANGPTL3): 0.4569

O=[N+]([O-])c1ccc(Sc2cccc[n+]2[O-])c2nonc12 [NSC228155]
LECT2 Fold Change (Log2) (LECT2): −0.74 Log2

Cc1[nH]c(/C=C2\C(=O)Nc3ccc(S(=O)(=O)Cc4c(Cl)cccc4Cl)cc32)c(C)c1C(=O)N1CCC[C@@H]1CN1CCCC1 [PHA-665752]
FN1 Fold Change (Log2) (FN1): −1.14 Log2

CCCC(=O)O[C@@H]1[C@@H](C)[C@@]2(O)[C@@H](C=C(CO)C[C@]3(O)C(=O)C(C)=C[C@@H]23)[C@@H]2C(C)(C)[C@]12OC(=O)CCC [Phorbol 12,13-dibutyrate]
LECT2 Fold Change (Log2) (LECT2): −0.65 Log2
